Columns and labels:
[1] = biological target: T1, Kappa-type opioid receptor (Homo sapiens, UniProt P41145); set-up: species or system Cricetulus griseus
Description: Inhibition of [3H]U-69593 binding to Opioid receptor kappa 1 of Chinese hamster ovary membrane

[2] = biological target: Delta-type opioid receptor (Homo sapiens, UniProt P41143); experiment: Inhibition of [3H]naltrindole binding to opioid receptor delta 1 of Chinese hamster ovary membrane; set-up: species or system Cricetulus griseus
Mu-type opioid receptor [3] = biological target: T2, Mu-type opioid receptor (Homo sapiens, UniProt P35372); set-up: species or system Cricetulus griseus
T2 sequence (P35372 whole entry): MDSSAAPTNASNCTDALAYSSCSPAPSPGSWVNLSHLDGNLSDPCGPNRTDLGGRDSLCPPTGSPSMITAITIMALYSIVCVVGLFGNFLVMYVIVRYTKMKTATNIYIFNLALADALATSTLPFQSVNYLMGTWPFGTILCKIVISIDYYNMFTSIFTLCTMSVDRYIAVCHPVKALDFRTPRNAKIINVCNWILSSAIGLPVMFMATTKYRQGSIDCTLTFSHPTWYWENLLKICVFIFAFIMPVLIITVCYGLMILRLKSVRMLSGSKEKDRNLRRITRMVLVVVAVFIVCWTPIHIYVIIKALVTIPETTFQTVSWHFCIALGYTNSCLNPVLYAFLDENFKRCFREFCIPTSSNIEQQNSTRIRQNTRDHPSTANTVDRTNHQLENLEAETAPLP
Description: Inhibition of [3H]-DAMGO binding to Opioid receptor mu 1 of Chinese hamster ovary membrane

[4] = biological target: T1, Kappa-type opioid receptor; experiment: Binding ability against kappa opioid receptor by stimulating the [35S]GTP-gamma-S, radioligand in Chinese hamster ovary membranes; assay type: functional, cell membranes; details: Cricetulus griseus
Mu-type opioid receptor [5] = biological target: T2, Mu-type opioid receptor
Description: Agonistic activity against Opioid receptor mu 1 in Chinese hamster ovary membranes

[6] = biological target: T1, Kappa-type opioid receptor; experiment: Agonistic activity against kappa opioid receptor in Chinese hamster ovary membranes; assay type: functional, cell membranes, Cricetulus griseus

T1 sequence (P41145 whole entry): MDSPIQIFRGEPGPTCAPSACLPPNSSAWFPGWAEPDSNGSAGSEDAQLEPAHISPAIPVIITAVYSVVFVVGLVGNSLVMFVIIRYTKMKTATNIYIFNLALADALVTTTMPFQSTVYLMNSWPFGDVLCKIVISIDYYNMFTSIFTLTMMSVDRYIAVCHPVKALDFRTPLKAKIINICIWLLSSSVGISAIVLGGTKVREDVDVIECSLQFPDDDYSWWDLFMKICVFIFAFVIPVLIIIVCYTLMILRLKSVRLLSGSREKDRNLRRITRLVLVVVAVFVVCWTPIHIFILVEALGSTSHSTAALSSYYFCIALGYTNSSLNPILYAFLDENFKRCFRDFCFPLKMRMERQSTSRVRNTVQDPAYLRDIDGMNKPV
Sequence of Delta-type opioid receptor (P41143 whole entry): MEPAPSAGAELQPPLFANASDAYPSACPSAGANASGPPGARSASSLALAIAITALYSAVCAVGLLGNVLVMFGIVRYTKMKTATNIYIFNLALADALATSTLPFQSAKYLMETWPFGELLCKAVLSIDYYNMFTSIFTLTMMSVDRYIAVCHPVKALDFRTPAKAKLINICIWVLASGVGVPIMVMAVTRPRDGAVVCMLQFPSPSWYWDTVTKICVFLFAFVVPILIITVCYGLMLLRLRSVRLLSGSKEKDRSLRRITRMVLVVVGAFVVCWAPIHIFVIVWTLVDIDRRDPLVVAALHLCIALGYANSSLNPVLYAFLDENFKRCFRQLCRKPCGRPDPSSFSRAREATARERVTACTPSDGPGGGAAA

C[C@H]1[C@H]2Cc3cc4sc(N)nc4cc3[C@]1(C)CCN2CC1CC1
Ki [1]: 6.7 nM
Ki [2]: 940 nM
Ki (Mu-type opioid receptor [3]): 48 nM

Nc1nc2cc3c(cc2s1)C[C@@H]1[C@@H]2CCCC[C@]32CCN1CC1CC1
Emax [4]: 80%
EC50 (Mu-type opioid receptor [5]): 73 nM
EC50 [6]: 2.4 nM

Nc1nc2cc3c(cc2s1)C[C@@H]1[C@@H]2CCCC[C@]32CCN1CC1CCC1
Emax [4]: 80%
EC50 [6]: 29 nM

C[C@H]1[C@H]2Cc3cc4sc(N)nc4cc3[C@]1(C)CCN2CC1CCC1
Ki [1]: 0.49 nM
Ki [2]: 93 nM
Ki (Mu-type opioid receptor [3]): 8.3 nM

CN1CC[C@]23CCCC[C@H]2[C@H]1Cc1cc2sc(N)nc2cc13 (stereo in doubt; 4)
Ki [1]: 6.4 nM
Ki [2]: 190 nM
Ki (Mu-type opioid receptor [3]): 1.1 nM

Nc1nc2cc3c(cc2s1)C(=O)[C@@H]1C2CCCC[C@]32CCN1CC1CCC1 (some centres not stated)
Ki [1]: 13 nM
Ki [2]: > 10000 nM
Ki (Mu-type opioid receptor [3]): 200 nM

CN1CC[C@]23c4c5cc6sc(N)nc6c4O[C@H]2[C@@H](O)CCC3[C@H]1C5 (some centres not stated)
Ki [1]: 220 nM
Ki [2]: 32 nM
Ki (Mu-type opioid receptor [3]): 30 nM

C[C@H]1C2Cc3ccc(O)cc3[C@]1(C)CCN2CC1CC1
Ki [1]: 0.18 nM
Ki [2]: 1.1 nM

Reference: ChEMBL document CHEMBL1149134, “2-aminothiazole-derived opioids. Bioisosteric replacement of phenols” (J Med Chem, 2004)
